For experiment [1], the target named is T1, N-lysine methyltransferase SMYD2 (Homo sapiens, UniProt Q9NRG4). Put plainly: Inhibition of FLAG-tagged SMYD2 (unknown origin) expressed in human U2OS cells mediated intracellular p53 methylation incubated for 24 hrs using p53 as substrate by immunofluorescence analysis. In kind it is cell-based.
The test system of a further experiment is KYSE-150 cell line. Put plainly: Antitumor activity against human KYSE-150 cells assessed as inhibition of cell proliferation incubated for 3 to 7 days by CellTiter-Glo assay. In kind it is functional, cell-based. (In general: ATP-based viability assays read luminescence as a measure of living cells.)
The test system of the next experiment is KYSE-270. Put plainly: Antitumor activity against human KYSE-270 cells assessed as inhibition of cell proliferation incubated for 3 to 7 days by CellTiter-Glo assay. Format: functional, cell-based.
A short description of experiment [2]: Antitumor activity against human HCC cells assessed as inhibition of cell proliferation incubated for 3 to 7 days by CellTiter-Glo assay. In kind it is functional, cell-based.
Experiment [3] is described as follows: Antitumor activity against human BC cells assessed as inhibition of cell proliferation incubated for 3 to 7 days by CellTiter-Glo assay. Format: functional, cell-based.
Experiment [4] concerns the target T1, N-lysine methyltransferase SMYD2. Description: Inhibition of human SMYD2 overexpressing human KYSE-150 cells assessed as SMYD2 assessed as reduction in BTF3 monomethylation by Western blot analysis. In kind it is cell-based, KYSE-150 cell line. (In general: A western blot detects proteins with antibodies after separation by electrophoresis.)

Each structure is given as a SMILES string. pIC50: −log10 of the molar value. Where only a bound is given, the exact number is not on record here.

T1 sequence (Q9NRG4 whole entry): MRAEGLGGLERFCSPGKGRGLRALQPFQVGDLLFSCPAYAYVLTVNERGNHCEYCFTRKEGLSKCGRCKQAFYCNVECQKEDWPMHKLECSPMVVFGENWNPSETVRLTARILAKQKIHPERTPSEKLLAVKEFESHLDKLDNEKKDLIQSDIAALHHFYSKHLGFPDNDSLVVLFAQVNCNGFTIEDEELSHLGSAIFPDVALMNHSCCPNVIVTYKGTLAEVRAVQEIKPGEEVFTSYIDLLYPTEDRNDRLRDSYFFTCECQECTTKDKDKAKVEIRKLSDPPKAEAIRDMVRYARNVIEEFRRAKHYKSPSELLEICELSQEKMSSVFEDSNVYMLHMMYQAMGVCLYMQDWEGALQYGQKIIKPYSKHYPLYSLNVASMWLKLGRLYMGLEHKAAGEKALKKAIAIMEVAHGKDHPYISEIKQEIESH

Regarding `O=C1COc2c(CCNCCN(C(=O)CCNCCc3ccc(Cl)c(Cl)c3)C3CCCCC3)ccc(O)c2N1`, the negative-log IC50 (pIC50) (commonly the IC50 on a negative log10 scale, so that one unit is a factor of ten) in experiment [1] was over 4.00.
Consider `Cc1cn(CCN2CCN(c3ccccc3-c3cc(C#N)cc(C(=O)NCCCN4CCCC4)c3)CC2)c2ccccc12`, for which the pIC50 (in the experiment with KYSE-150 cell line; with KYSE-270; in experiment [2]; in experiment [3]) was 5.82 each time.
Consider `O=C(NC1CN(Cc2cnn(Cc3ccc(Cl)cc3)c2)C1)c1cn(C2CC2)nn1`, for which the pIC50 in experiment [4] was 8.54.

Values taken from ChEMBL document CHEMBL5113510, “Protein Lysine Methyltransferase SMYD2: A Promising Small Molecule Target for Cancer Therapy” (J Med Chem, 2022).
